Test results taken from patent publication US20090238799A1, “Conditionally-Immortalised Pancreatic Cells” (priority 2005, published 2009).

How the values were obtained:
[1] = system: cells containing the cmyERTam construct; assay: Proliferation of cells containing the cmyERTam construct; format: cell-based, human; conditions: removal promotes differentiation
Experimental: Before use, the following growth factors (GF) were added to HPM: 20 ng/ml epidermal growth factor (EGF) and 50 nM Gastrin I. After infection the pancreas cells were cultured in the presence of a supplement: 100 nM 4-Hydroxytamoxifen (4OHT).
Pancreas cells or preselected pancreas cell aggregates were transferred on fibronectin coated or uncoated vessels. Pancreatic cells were infected with virus supernatant and 4-8 μg/ml hexadimethrine bromide. After 8-16 hours of infection, fresh HPM was added and the infection cycle was repeated the next day. The infection was done in 10 cm Petri dishes with cell confluency ranging from 40% to 70%. After infection 4OHT was added to the medium. After 2 days from completed infection the cells were passaged for expansion and/or selection.

[2] = system: Telomerase Reverse Transcriptase; assay: Quantitative PCR of c-myc gene target induction in c-mycERTAM pancreatic cells; format: cell-based, human; conditions: pancreatic cells with c-mycERTAM, FIG. 4
Experimental: For the PCR of the c-myc-ER and insulin, the titanium taq PCR kit (Clontech laboratories) was used, see Table 2 for the primers used. The PCR reaction conditions were standard. The PCR machine used was GeneAmp PCR system 2700. For analysis, 15 μl of the PCR product was mixed with 5 μl 6× loading dye solution (MBI R0611) and loaded to a gel. A 100 bp DNA ladder (MBI SM0241), 6 μl, containing 3 μg DNA was also loaded. The gel was a 2% agarose gel consisting of: TAE buffer (Invitrogen 15558-034), agarose 2%, ethidium bromide, 267 μg/ml. The gel was run with an electrophoresis power supply E835 (Consort) in a tray HU13 (Jencons) and finally scanned with Fluor-S multimager (Biorad) and analysed with the software Quantity One (Biorad). For quantitative PCR, total RNA is extracted from cell pellets using Trizol (Invitrogen) and RNeasy (Qiagen) spin-columns, prior to reverse-transcription with Superscript II (Invitrogen) to synthesize the first strand of cDNA, which can be used as a template in quantitative PCR. Each gene transcript is detected with a sequence-specific primer-probe combination which accumulates a fluorescent signal during each PCR cycle, detected using a Lightcycler 480 instrument (Roche); the transcription of each gene is normalized against loading-level by assessing a number of house-keeping genes, and expressed as a proportion of a calibrator sample.

Substance: 4-hydroxytamoxifen [4-OHT]
- effect of addition on proliferation [1]: promotes proliferation
- Telomerase Reverse Transcriptase (hTERT) induction [2]: induction
